According to ChEMBL document CHEMBL1150248, “Halogenated derivatives QSAR model using spectral moments to predict haloacetic acids (HAA) mutagenicity” (Bioorg Med Chem, 2008):

Tested on: Salmonella typhimurium
Assay: Mutagenic activity in Salmonella Typhimurium TA100 without metabolic activation
Assay type: toxicity, organism-based
Details: salmonella enterica subsp. enterica serovar typhimurium

| SMILES | Activity |
| --- | --- |
| O=C(O)C(Cl)(Cl)Br [BROMODICHLOROACETIC ACID] | Non-toxic |
| O=C(O)C(Cl)(Cl)Cl [TRICHLOROACETIC ACID] | Non-toxic |
| O=C(O)C(Br)(Br)Br [TRIBROMOACETIC ACID] | Non-toxic |
